From patent US6777418B2, “Retinoid compounds (I)” (Syntex (U.S.A.) LLC, priority 2000, dated 2004)
Where “and” joins values, the source holds several entries; their conditions need not be identical. Equal values may be shown once.

Row | Compound | melting point
1 | CC1(C)CCC(C)(C)c2cc(-c3ccsc3)c(/C=C/c3ccc(C(=O)O)cc3)cc21 | 244.5 to 245.8 °C
2 | CC1(C)CCC(C)(C)c2cc(-c3cccs3)c(/C=C/c3ccc(C(=O)O)cc3)cc21 | 242.5 to 243.6 °C
3 | CC1(C)CCC(C)(C)c2cc(CSC3CCCC3)c(/C=C/c3ccc(C(=O)O)cc3)cc21 [Compound 4] | 209.4 to 211.3 °C
4 | COCCOCc1cc2c(cc1/C=C/c1ccc(C(=O)O)cc1)C(C)(C)CCC2(C)C [Compound 5] | 55.9 to 58.2 °C
5 | CC1(C)CCC(C)(C)c2cc(CSCC(O)CO)c(/C=C/c3ccc(C(=O)O)cc3)cc21 (centres unmarked) [Compound 9] | 174.8 to 175.9 °C
6 | CCOCCCc1cc2c(cc1/C=C/c1ccc(C(=O)O)cc1)C(C)(C)CCC2(C)C [Compound 10, 4-{(E)-2-[3-(3-ethoxypropyl)-5,8,8-tetramethyl-5,6,7,8-tetrahydro-naphthalen-2-yl]vinyl}benzoic acid] | 169.4 to 173.3 °C
7 | CC1(C)CCC(C)(C)c2cc(CCCO)c(/C=C/c3ccc(C(=O)O)cc3)cc21 [Compound 12, 4-{(E)-2-[3-(3-hydroxypropyl)-5,5,8,8-tetramethyl-5,6,7,8-tetrahydro-naphthalen-2-yl]vinyl}benzoic acid] | 212.8 to 213.2 °C
8 | CC(C)SCc1cc2c(cc1/C=C/c1ccc(C(=O)O)cc1)C(C)(C)CCC2(C)C [Compound 13] | 208.6 to 210.8 °C
9 | Cn1cnnc1SCc1cc2c(cc1/C=C/c1ccc(C(=O)O)cc1)C(C)(C)CCC2(C)C [Compound 22] | 251.6 to 252.6 °C
10 | Cc1nnc(SCc2cc3c(cc2/C=C/c2ccc(C(=O)O)cc2)C(C)(C)CCC3(C)C)s1 [Compound 23] | 218.1 to 218.5 °C
11 | Cc1nnc(SCCc2cc3c(cc2/C=C/c2ccc(C(=O)O)cc2)C(C)(C)CCC3(C)C)s1 [Compound 27, 4-((E)-2-{5,5,8,8-tetramethyl-3-[3-(5-methyl-[1,3,4]thiadizol-2ylsulfanyl)-ethyl]-5,6,7,8-tetrahydro-naphthalen-2-yl}vinyl)benzoic acid] | 244.7 to 245.2 °C
12 | Cc1nnc(SCCCc2cc3c(cc2/C=C/c2ccc(C(=O)O)cc2)C(C)(C)CCC3(C)C)s1 [Compound 28, 4-((E)-2-{5,5,8,8-Tetramethyl-3-[3-(5-methyl-[1,3,4]thiadiazol-2-ylsulfanyl)-propyl]-5,6,7,8-tetrahydro-naphthalen-2-yl}vinyl)benzoic acid] | 144 to 145.3 °C
13 | CC1(C)CCC(C)(C)c2cc(CCn3cccn3)c(/C=C/c3ccc(C(=O)O)cc3)cc21 [Compound 29, 4-{(E)-2-[5,5,8,8-tetramethyl-3-(2-pyrazol-1-ylethyl)-5,6,7,8-tetrahydro-naphthalen-2-yl]vinyl}benzoic acid] | 235.3 to 235.9 °C
14 | CC1(C)CCC(C)(C)c2cc(CCCn3cccn3)c(/C=C/c3ccc(C(=O)O)cc3)cc21 [Compound 30, 4-{(E)-2-[5,5,8,8-tetramethyl-3-(3-pyrazol-1-ylpropyl)-5,6,7,8-tetrahydro-naphthalen-2-yl]vinyl}benzoic acid] | 181.5 to 182.5 °C
15 | CC1(C)CCC(C)(C)c2cc(CCc3nccs3)c(/C=C/c3ccc(C(=O)O)cc3)cc21 [Compound 40, 4-{(E)-2-[5,5,8,8-tetramethyl-3-(2-thiazol-2-yl-ethyl)-5,6,7,8-tetrahydro-naphthalen-2-yl)vinyl]benzoic acid] | 215.8 to 217.5 °C
16 | CC1(C)CCC(C)(C)c2cc(CCc3ncccn3)c(/C=C/c3ccc(C(=O)O)cc3)cc21 [Compound 41] | 228 to 228.9 °C
17 | Cc1ccc(Cc2cc3c(cc2/C=C/c2ccc(C(=O)O)cc2)C(C)(C)CCC3(C)C)cc1 [Compound 42, 4-{(E)-2-[5,5,8,8-tetramethyl-3-(4-methylbenzyl)-5,6,7,8-tetrahydro-naphthalen-2-yl]vinyl}benzoic acid] | 216.3 to 217.3 °C

The next lines start with the values.

Row | melting point | Compound
18 | 238.3 to 241.5 °C and 238.5 to 241.5 °C | CC1(C)c2cc(/C=C/c3ccc(C(=O)O)cc3)c(Cn3cccn3)cc2C(C)(C)[C@@H](O)[C@H]1O (stereo in doubt) [Compound 148, 4-[(E)-2-(5,5,8,8-tetramethyl-3-pyrazol-1-ylmethyl-6,7-cis-dihydroxy-5,6,7,8-tetrahydro-naphthalen-2-yl)vinyl]-benzoic acid]
19 | 204.3 to 205.7 °C | CC1(C)CCC(C)(C)c2cc(Cc3ccc(F)cc3F)c(/C=C/c3ccc(C(=O)O)cc3)cc21 [Compound 43, 4-{(E)-2-[5,5,8,8-tetramethyl-3-(2,4-difluorobenzyl)-5,6,7,8-tetrahydro-naphthalen-2-yl]vinyl}benzoic acid]
20 | 229.1 to 229.6 °C | CC1(C)CCC(C)(C)c2cc(Cc3cccs3)c(/C=C/c3ccc(C(=O)O)cc3)cc21 [Compound 44, 4-[(E)-2-(5,5,8,8-tetramethyl-3-thiophen-2ylmethyl-5,6,7,8-tetrahydro-naphthalen-2-yl)vinyl]benzoic acid]
21 | 168 to 174 °C | CC1(C)CCC(C)(C)c2cc(Cn3cccn3)c(/C=C/c3ccc(C(=O)O)s3)cc21 [Compound 45, 5-[(E)-2-(5,5,8,8-tetramethyl-3-pyrazol-1-ylmethyl-5,6,7,8-tetrahydro-naphthalen-2-yl)vinyl]-thiophene-2-carboxylic acid]
22 | 177 to 179 °C | CC1(C)CCC(C)(C)c2cc(Cn3cccn3)c(/C=C/c3ccc(C(=O)O)c(F)c3)cc21 [Compound 47, 2-Fluoro-4-[(E)-2-[5,5,8,8-tetramethyl-3-pyrazol-1-ylmethyl-5,6,7,8-tetrahydronaphthalen-2-yl)vinyl]benzoic acid]
23 | 241.6 to 242 °C | CC1(C)CC(O)C(C)(C)c2cc(Cn3cccn3)c(/C=C/c3ccc(C(=O)O)cc3)cc21 (centres unmarked) [Compound 55, 4-[(E)-2-(5,5,8,8-tetramethyl-3pyrazol-1-ylmethyl-6-hydroxy-5,6,7,8-tetrahydro-naphthalen-2-yl)vinyl]benzoic acid]
24 | 233 to 233.5 °C | CC1(C)CC(=O)C(C)(C)c2cc(Cn3cccn3)c(/C=C/c3ccc(C(=O)O)cc3)cc21 [Compound 133, 4-[(E)-2-(5,5,8,8-tetramethyl-3-pyrazol-1-ylmethyl-6-oxo-5,6,7,8-tetrahydro-naphthalen-2-yl)vinyl]-benzoic acid]
25 | 247.6 to 248.4 °C | CC1(C)CC(O)C(C)(C)c2cc(/C=C/c3ccc(C(=O)O)cc3)c(Cn3cccn3)cc21 (centres unmarked) [Compound 137, (E)-4-[2-(3-(pyrazole-1-ylmethyl)-7-hydroxy-5,5,8,8-tetramethyl-5,6,7,8-tetrahydronaphthalene-2-yl)vinyl]benzoic acid]
26 | 264.8 to 265.9 °C | CC1(C)CC(=O)C(C)(C)c2cc(/C=C/c3ccc(C(=O)O)cc3)c(Cn3cccn3)cc21 [Compound 144, (E)-4-[2-(3-(pyrazole-1-ylmethyl)-7-oxo-5,5,8,8-tetramethyl-5,6,7,8-tetrahydronaphthalene-2-yl)vinyl]benzoic acid]
27 | 283 to 283.5 °C | CC1(C)CCC(C)(C)c2cc(Sc3ncccn3)c(/C=C/c3ccc(C(=O)O)cc3)cc21 [Compound 155, 4-{(E)-2-[5,5,8,8-Tetramethyl-3-(mercaptopyrmidin-2-yl)-5,6,7,8-tetrahydro-naphthalen-2-yl)vinyl]benzoic acid]
28 | 248 to 249 °C | CC1(C)CCC(C)(C)c2cc(Cn3cccn3)c(/C=C/c3ccc(C(N)=O)cc3)cc21 [Compound 165, 4-[(E)-2-(5,5,8,8-tetramethyl-3-pyrzol-1-ylmethyl-5,6,7,8-tetrahydro-naphthalen-2-yl)vinyl]benzamide]
29 | 171.6 to 172.5 °C | CC1(C)CCC(C)(C)c2cc(Cn3cccn3)c(/C=C/c3ccc(C(=O)N4CCCCC4)cc3)cc21 [Compound 166, 4-[(E)-2-(5,5,8,8-tetramethyl-3-pyrzol-1-ylmethyl-5,6,7,8-tetrahydro-naphthalen-2-yl)vinyl]benzoic acid piperidine amide]
